From ChEMBL document CHEMBL1127147, “Rational design for cytosolic delivery of nucleoside monphosphates : SATE and DTE as enzyme-labile transient phosphate protecting groups” (Bioorg Med Chem Lett, 1993)
pEC50: −log10 of the molar value.

What was measured:
[1] = test system: CEM-TK(-); assay: Tested for antiviral activity against HIV-1 infected human CEM-TK- cell line (deficient in thymidine kinase activity); format: functional, cell-based
[2] = test system: CEM-TK(-); assay: Tested for cytotoxicity against human CEM-TK- cell line (deficient in thymidine kinase activity); format: functional
[3] = test system: CEM-SS; assay: Tested for antiviral activity against HIV-1 infected human CEM-SS cell line; format: functional, cell-based
[4] = test system: CEM-SS; assay: Tested for cytotoxicity against human CEM-SS cell line; Percent reduction 40; format: functional
[5] = test system: CEM-SS; assay: Tested for cytotoxicity against human CEM-SS cell line; format: functional

| pEC50 [1] | pEC50 [3] | Compound | CC50 [2] | CC50 [4] | CC50 [5] |
| --- | --- | --- | --- | --- | --- |
| 5.10 | 4.22 | O=c1ccn(C2CCC(COP(=O)(OCCSSCCO)OCCSSCCO)O2)c(=O)[nH]1 (stereo not drawn) | 80 µM | > 100 µM |  |
| 5.40 | 5.30 | CC(=O)SCCOP(=O)(OCCSC(C)=O)OCC1CCC(n2ccc(=O)[nH]c2=O)O1 (stereo not drawn) | 70 µM |  | 900 µM |
